The source of these data is US20140271734A1, “BILE ACID RECYCLING INHIBITORS FOR TREATMENT OF BARRETT'S ESOPHAGUS AND GASTROESOPHAGEAL REFLUX DISEASE” (LUMENA PHARMACEUTICALS, INC., priority 2013, published 2014).

The Cmax is the peak of the concentration-time curve. For orientation: Tmax means the time at which the peak concentration occurs. In general, bioavailability refers to the share of a dose that reaches the circulation, judged against a reference dose that is usually intravenous.

SMILES strings stand for the structures. Where two headings read alike, the source gives them in different places.

Data set [1] can be described thus: Pharmacokinetics of LUM001 after oral solution and capsule in dogs. In kind it is in vivo, Beagle dogs. Conditions: for Cmax / Tmax / AUC(0-t) / bioavailability: female, Beagle, dog, plasma; for Cmax / Tmax / AUC(0-t): po, 7.5 mg/kg; for AUC(0-t): read-out: AUC(0-24 h); for bioavailability: read-out: BA (bioavailability). How it is done: Three fasted female Beagle dogs were administered LUM001 either as an oral solution at doses of 1 or 7.5 mg LUM001 free form/kg or in an oral capsule at a dose of 7.5 mg LUM001 free form/kg in a cross-over design. A dose of 7.5 mg LUM001 free form/kg was also administered as an oral solution to fed beagle dogs to evaluate the effect of food on plasma concentrations of LUM001.
Blood samples of approximately 3 mL was collected by venipuncture or indwelling catheter into chilled tubes containing heparin at the following timepoints: 0 (predose), 0.5, 1, 1.5, 2, 3, 5, 6, 8, 10, and 24 hours. The plasma samples were prepared by centrifugation of blood within 30 minutes after sample collection. All samples were stored at −20° C.±5° C. until analysis to study the relative exposures of LUM001 free form after capsule or oral solution dosing.

In data set [2] the test system is serum total bile acid (SBA). Conditions: previous experiments; cited from earlier work.
The test system of data set [3] is fecal total bile acid (FBA). Briefly: Fecal bile acids in dogs, LUM001 daily. In kind it is in vivo, beagle dogs. Conditions: 14 Days; for Weight-Adjusted Fecal Total Bile Acids Excretion: n=8. On the procedure:
Healthy female and male beagle dogs in the age range of 8 to 10 months were used. The animals were acclimated for at least four weeks before dose administration. Four female and four male dogs per dose group (groups 2-5) were given single daily doses of LUM001 at 1, 4, 12 and 30 mg free form/kg for 13 days. Animals in the control group (group 1) were given the same number of empty capsules as the animals of group 5 to treat all dose groups the same.
Fecal samples were collected to determine the fecal total bile acid (FBA) concentration for each animal. Fecal collections were made during the final 72 hours of the study, for three consecutive 24-hour periods between 9:00 am and 10:00 am each day, prior to dosing and feeding. The separate daily collections from each dog were weighed, combined and homogenized with distilled water in a food processor to generate a homogeneous slurry. Homogenate (1.4 g) was extracted in a final concentration ratio of 2:0.6 of 50% (v/v) tertiary butanol/distilled water for 45 minutes in a 37° C. water bath and subjected to centrifugation for 13 minutes at 2000×g. The concentration of bile acids (mmolesgram homogenate) was determined using a 96-well enzymatic assay system. Aliquots of the fecal extracts (20 μl) were added to two sets of triplicate wells in a 96 well assay plate. A standardized sodium taurocholate solution and a standardized fecal extract solution (previously made from pooled samples and characterized for its bile acid concentration) were also analyzed for assay quality control. Aliquots of sodium taurocholate (20 μl), were serially diluted to generate a standard curve containing 30-540 nmoles/well. A 230 μl aliquot of reaction mixture containing 1M hydrazine hydrate, 0.1 M pyrophosphate and 0.46 mg/ml NAD was added to each well. Subsequently, a 50 μl aliquot of either 3a-hydroxysteroid dehydrogenase enzyme (HSD; 0.8 units/ml) or assay buffer (0.1 M sodium pyrophosphate) was added to one each of the two sets of triplicates. Following 60 minutes of incubation at room temperature, the optical density at 340 nm was measured and the mean of each set of triplicate samples was calculated. The difference in optical density±HSD enzyme was used to determine the bile acid concentration (mM) of each sample based on the sodium taurocholate standard curve. The bile acid concentration of the extract (mmolesgram homogenate), the total weight of the fecal homogenate (grams) and the body weight of the dogs (kg) were used to calculate the corresponding FBA concentration in mmoles/kg/day for each animal. All reagents used for the assay were obtained from Sigma Chemical Co., St. Louis, Mo. (HSD—catalog # H-1506; NAD—catalog # N1636; sodium taurocholate—catalog # T-4009). A one-tailed, paired Student's t-test was used to determine the statistical significance of changes in FBA concentration in treated animals compared to pretreatment values and between treatment groups.

A further data set has as its system Hemoglobin A1c (HbA1c). Briefly: Baseline-corrected percent HbA1c in ZDF rats. In kind it is in vivo. Conditions: twice daily oral gavage.
Setting [4] is: oral capsule 7.5 mg/kg free form, fasted.
Where [5] appears, read: oral solution 7.5 mg/kg free form, fed.

As for `CCCCC1(CCCC)CS(=O)(=O)c2ccc(N(C)C)cc2[C@@H](c2ccc(OCc3ccc(C[N+]45CCN(CC4)CC5)cc3)cc2)[C@H]1O` [LUM001], the results for the Cmax in data set [1] (setting [4]) and in data set [1] (setting [5]) were 4.24 ng/mL and 1.28 ng/mL, respectively. Also, the Tmax in data set [1] (setting [4]) came to 5 h; in data set [1] (setting [5]), 0.5 h. Further, the AUC(0-t) was found to be 33.7 ng·h/mL in data set [1] (setting [4]) and 3.9 ng·h/mL in data set [1] (setting [5]). Further, the bioavailability is less than 0.1% in data set [1] (setting [4]) and less than 0.1% in data set [1] (oral solution 1 mg/kg free form, fasted). The “BA (bioavailability)” value in data set [1] (oral solution 7.5 mg/kg free form, fasted) is listed as less than 0.1%; in data set [1] (setting [5]), less than 0.1%. In addition, the “Time LUM001 remains active” value in data set [2] was “more than 4.5 hours”. In addition, the “Weight-Adjusted Fecal Total Bile Acids Excretion, % change from vehicle group” value is reported as “(+63) %” in data set [3] (1 mg/kg/day), “(+137) %” in data set [3] (4 mg/kg/day), “(+158) %” in data set [3] (12 mg/kg/day) and “(+183) %” in data set [3] (30 mg/kg/day). In addition, the “Weight-Adjusted Fecal Total Bile Acids Excretion” value in data set [3] (1 mg/kg/day) came out at 96 ± 9 µmol/day/kg; in data set [3] (4 mg/kg/day), 140 ± 6 µmol/day/kg; in data set [3] (12 mg/kg/day), 152 ± 13 µmol/day/kg; in data set [3] (30 mg/kg/day) it was 167 ± 15 µmol/day/kg.
Consider `CCCC[C@]1(CC)CS(=O)(=O)c2ccc(N(C)C)cc2[C@@H](c2cccc(NC(=O)N[C@@H]3O[C@H](COS(=O)(=O)[O-])[C@@H](O)[C@H](OCc4ccccc4)[C@H]3O)c2)[C@H]1O.CCO.O.[K+]` [LUM002, potassium((2R,3R,4S,5R,6R)-4-benzyloxy-6-{3-[3-((3S,4R,5R)-3-butyl-7-dimethylamino-3-ethyl-4-hydroxy-1,1-dioxo-2,3,4,5-tetrahydro-1H-benzo[b]thiepin-5-yl)-phenyl]-ureido}-3,5-dihydroxy-tetrahydro-pyran-2-ylmethyl)sulphate ethanolate, hydrate], for which, in the data set on Hemoglobin A1c (HbA1c), the “Baseline-corrected percent HbA1c” value was “significant dose-dependent reductions”.
